Reference: ChEMBL document CHEMBL1127982, “Synthesis, chemical half-life and decomposition of new N3-(substituted) derivatives of CCNU” (Bioorg Med Chem Lett, 1994)

How the values were obtained:
[1] = Partition coefficient (logD7.4); settings: octanol/water, pH 7.4
[2] = Chemical half-life was determined
[3] = HChemical half-life was determined, not active; format: ADME
[4] = Chemical half-life was determined; not active; format: ADME

| Structure (SMILES) | logD [1] | half-life [2] [h] | other results |
| --- | --- | --- | --- |
| CC(O)CN(C(=O)N(CCCl)N=O)C1CCCCC1 (centres undefined) |  | 43.3 |  |
| O=NN(CCCl)C(=O)N(C1CCCCC1)C1CCCCC1 |  | 62.6 |  |
| CCN(C(=O)N(CCCl)N=O)C1CCCCC1 |  | 132 |  |
| O=NN(CCCl)C(=O)N(CCCO)C1CCCCC1 |  |  | T1/2 [3]: Not Active |
| CC(O)CN(C(=O)NCCCl)C1CCCCC1 (centres undefined) | 0.37 |  |  |
| CC(C)(C)N(C(=O)NCCCl)C1CCCCC1 | 3.03 |  |  |
| CN(C(=O)N(CCCl)N=O)C1CCCCC1 |  | 47.8 |  |
| CC(C)(C)N(C(=O)N(CCCl)N=O)C1CCCCC1 | 2.46 |  | T1/2 [4]: Not Active |
| CC(C)N(C(=O)N(CCCl)N=O)C1CCCCC1 | 1.78 | 32.9 |  |
| O=NN(CCCl)C(=O)NC1CCCCC1 [LOMUSTINE] | 2.83 | 2.1 |  |

Second part, led by results:

| logD [1] | half-life [2] [h] | Structure (SMILES) | other results |
| --- | --- | --- | --- |
| 2.36 |  | CC(C)N(C(=O)NCCCl)C1CCCCC1 |  |
| 1.48 |  | C=CCN(C(=O)NCCCl)C1CCCCC1 |  |
|  | 76.8 | C#CCN(C(=O)N(CCCl)N=O)C1CCCCC1 |  |
|  | 69.8 | CCCN(C(=O)N(CCCl)N=O)C1CCCCC1 |  |
| 1.93 |  | CC(C)CN(C(=O)NCCCl)C1CCCCC1 |  |
| 1.41 |  | CN(C(=O)NCCCl)C1CCCCC1 |  |
